Data as given in patent US20240262803A1, “COMPOUNDS, COMPOSITIONS AND METHODS OF TREATING DISORDERS” (Chungdu Anticancer Bioscience Ltd, priority 2021, published 2024).
“Also recorded” adds a separate entry of the source. Read-outs that look alike come from different tables or passages of the source.

Key:
RPEMYC^H2B-GFP cells [1] = experiment: Mechanism-informed phenotypic screening assay (mitotic arrest, polyploidy; GE IN-Cell Analyzer 2000); format: cell-based; conditions: 20 nM to 20 μM, 24, 48 or 72 hours, read-out: Min. Effective conc. for polyploidy (≥5%)
In short: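 Cells expressing Histone 2B-EGFP (RPEMYC^H2B-GFP) were plated 18-24 h before exposure to compounds at 20 nM to 20 μM. At 24, 48 or 72 h, imaging scored mitotic arrest or change in DNA content. Value is the lowest concentration giving polyploid accumulation at 48 h.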

[2] = test system: lung cancer cell line NCI-H23; experiment: MTT assay of cellular proliferation, NCI-H23; format: cell-based; conditions: Homo sapiens, read-out: EC50: Concentration that inhibits 50% of proliferation
In short: (§1)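 DMEM/5% FBS, 37 °C, 5% CO2; seed, 15˜24 h to 20˜30% confluence; compound 1 nM–10 μM; MTT 3˜4 h at endpoint; solubilize, OD570; EC50 = 50% growth inhibition.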

[3] = test system: lung cancer cell line A549; experiment: MTT assay of cellular proliferation, A549; format: cell-based; conditions: Homo sapiens, read-out: EC50: Concentration that inhibits 50% of proliferation
In short: as §1

[4] = test system: colon cancer cell line HCT116; experiment: MTT assay of cellular proliferation, HCT116; format: cell-based; conditions: Homo sapiens, HCT-116, read-out: EC50: Concentration that inhibits 50% of proliferation
In short: as §1

[5] = test system: colon cancer cell line SW460; experiment: MTT assay of cellular proliferation, SW460; format: cell-based; conditions: Homo sapiens, SW480; read-out: EC50: Concentration that inhibits 50% of proliferation
In short: as §1

[6] = test system: breast cancer cell line MDA-MB-231; experiment: MTT assay of cellular proliferation, MDA-MB-231; format: cell-based; conditions: Homo sapiens, read-out: EC50: Concentration that inhibits 50% of proliferation
In short: as §1

[7] = test system: gastric cancer cell line NCI-N87; experiment: MTT assay of cellular proliferation, NCI-N87; format: cell-based; conditions: Homo sapiens, read-out: EC50: Concentration that inhibits 50% of proliferation
In short: as §1

[8] = test system: cervical cancer cell line Hela; experiment: MTT assay of cellular proliferation, Hela; format: cell-based; conditions: Homo sapiens, read-out: EC50: Concentration that inhibits 50% of proliferation
In short: as §1

[9] = test system: liver cancer cell line T2 HCC; experiment: MTT assay of cellular proliferation, T2 HCC; format: cell-based; conditions: Mus musculus, read-out: EC50: Concentration that inhibits 50% of proliferation
In short: as §1

[10] = test system: human lung adenocarcinoma cell line NCI-H23; experiment: Xenograft assay, NCI-H23; format: in vivo; conditions: NCI-H23 subcutaneous xenograft, Nu/Nu mice, oral gavage twice a day for 9 days, FIG. 3
Experimental: (§2) Xenografts were initiated in immunocompromised (Nu/Nu) mice with the human lung adenocarcinoma cell line NCI-H23 (FIG. 3) and the human colon cancer cell line HCT116 (FIG. 4). Five million cells were injected subcutaneously into each mouse and treatment was initiated when the average tumor volumes reached 150 mm3 (n=5/groups). Tumor-bearing mice were randomized into different groups to receive either vehicle or indicated compounds. The compounds were administered through oral gavage twice a day for 9 days. Day 0 on the x-axis indicates the day that treatment was initiated. For these experiments, all compounds were first dissolved in DMSO and then diluted 1:10 into a mixture containing 50% PEG300 and 49% PBS, 1% Tween 80, pH2.2. 100 ul of drug solution was administered with each dose. Tumor volumes were determined once every three days and are calculated from digital caliper raw data by using the formula: Volume (mm3)=(L×W^2)/2. The value W (Width) is the smaller of two perpendicular tumor axes and the value L (Length) is the larger of two perpendicular axes. Mean tumor volume growth curves and means are calculated for each treatment group.

[11] = test system: human colon cancer cell line HCT116; experiment: Xenograft assay, HCT116; format: in vivo; conditions: HCT116 subcutaneous xenograft, Nu/Nu mice, oral gavage twice a day for 9 days, FIG. 4
Experimental: as §2

[12] = test system: lung cancer cell line NCI-H23; experiment: Minimal effective concentration that elicits polyploidy, NCI-H23; format: cell-based; conditions: Homo sapiens, read-out: MECP: Minimal effective concentration that elicits polyploidy
[13] = test system: lung cancer cell line A549; experiment: Minimal effective concentration that elicits polyploidy, A549; format: cell-based; conditions: Homo sapiens, read-out: MECP: Minimal effective concentration that elicits polyploidy
[14] = test system: colon cancer cell line HCT116; experiment: Minimal effective concentration that elicits polyploidy, HCT116; format: cell-based; conditions: Homo sapiens, HCT-116, read-out: MECP: Minimal effective concentration that elicits polyploidy
SW480 = experiment: Minimal effective concentration that elicits polyploidy, SW480; format: cell-based; conditions: Homo sapiens, read-out: MECP: Minimal effective concentration that elicits polyploidy
[15] = test system: breast cancer cell line MDA-MB-231; experiment: Minimal effective concentration that elicits polyploidy, MDA-MB-231; format: cell-based; conditions: Homo sapiens, read-out: MECP: Minimal effective concentration that elicits polyploidy
[16] = test system: cervical cancer cell line Hela; experiment: Minimal effective concentration that elicits polyploidy, Hela; format: cell-based; conditions: Homo sapiens, read-out: MECP: Minimal effective concentration that elicits polyploidy
[17] = test system: gastric cancer cell line NCI-N87; experiment: Minimal effective concentration that elicits polyploidy, NCI-N87; format: cell-based; conditions: Homo sapiens, read-out: MECP: Minimal effective concentration that elicits polyploidy
[18] = test system: liver cancer cell line T2 HCC; experiment: Minimal effective concentration that elicits polyploidy, T2 HCC; format: cell-based; conditions: Mus musculus, read-out: MECP: Minimal effective concentration that elicits polyploidy
RPEMYC^H2B-GFP cells [19] = experiment: Mechanism-informed phenotypic screening assay (mitotic arrest, polyploidy; GE IN-Cell Analyzer 2000); format: cell-based; conditions: 20 nM to 20 μM, 24, 48 or 72 hours, read-out: Mitotic Arrest (≥5%)
[20] = test system: lung cancer cell line NCI-H460; experiment: MTT assay of cellular proliferation, NCI-H460; format: cell-based; conditions: Homo sapiens, read-out: EC50: Concentration that inhibits 50% of proliferation
Experimental: (§3) Six lung cancer cell lines (NCI-H23, NCI-H460, NCI-H596, NCI-H2170, Calu-6 and A549), two colon cancer cell lines (HCT116 and SW460), one breast cancer cell line MDA-MB-231, one gastric cancer cell line NCI-N87, one prostate cancer cell line DU145, one cervical cancer cell line Hela, and one glioblastoma cell line T98G were obtained from ATCC. The T2 HCC cell line was derived from a mouse liver cancer model initiated by a transgene of MYC (Reference). All cell lines were cultured in DMEM (Gibco, Cleveland, TN, USA) supplemented with 5% fetal bovine serum (Gibco), penicillin (100 U/mL)-streptomycin (100 μg/mL) (Gibco, Cat. No. 15140-122), 2 mM L-glutamine (Gibco, 200 mM solution, Cat. No. 25030081), and 1 mM sodium pyruvate (Gibco, 100 mM solution, Cat. No. 11360070) at 37° C. in a humidified incubator that was maintained at 5% CO2.
(§4) The MTT assay measures cellular metabolic activity as a proxy for cell viability and involves the conversion of the water-soluble yellow dye MTT [3-(4,5-dimethylthiazol-2-yl)-2,5-diphenyltetrazolium bromide] into an insoluble purple formazan by the action of mitochondrial reductase. Formazan is then solubilized and its concentration is determined by measuring the optical density (OD) value at a wavelength of 570 nm. The value is in proportional to the number of live cells with excellent linearity up to ˜10^6 cells per well. The MTT assay was used to determine the EC50 value, the concentration of a compound that leads to 50% inhibition of cellular proliferation. Briefly, cells were split when growing to the mid-Log phase. Cells in 100 μL of culture medium were seeded into each well of 96-well microplates and cultivated for 15˜24 hours to reach a confluence of 20˜30% and were then exposed to drugs at concentrations ranging from 1 nM to 10 μM. At the endpoint, 20 μL of a MTT stock solution in DMSO (5 mg/mL) was added to each well that contains […] of DMEM. The microplates were left in the cell culture incubator for 3˜4 h before subjected to solubilization and determination of formazan at A570 in a microplate reader (BioTek ELX808iu). […] Therefore, these compounds might hold a broad utility in the treatment of a large variety of human malignancies.

[21] = test system: lung cancer cell line NCI-H596; experiment: MTT assay of cellular proliferation, NCI-H596; format: cell-based; conditions: Homo sapiens, read-out: EC50: Concentration that inhibits 50% of proliferation
Experimental: as §3, §4

[22] = test system: lung cancer cell line NCI-H2170; experiment: MTT assay of cellular proliferation, NCI-H2170; format: cell-based; conditions: Homo sapiens, read-out: EC50: Concentration that inhibits 50% of proliferation
Experimental: as §3, §4

[23] = test system: lung cancer cell line Calu-6; experiment: MTT assay of cellular proliferation, Calu-6; format: cell-based; conditions: Homo sapiens, read-out: EC50: Concentration that inhibits 50% of proliferation
Experimental: as §3, §4

[24] = test system: prostate cancer cell line DU145; experiment: MTT assay of cellular proliferation, DU145; format: cell-based; conditions: Homo sapiens, DU-145, read-out: EC50: Concentration that inhibits 50% of proliferation
Experimental: as §3, §4

[25] = test system: glioblastoma cell line T98G; experiment: MTT assay of cellular proliferation, T98G; format: cell-based; conditions: Homo sapiens, read-out: EC50: Concentration that inhibits 50% of proliferation
Experimental: as §3, §4

[26] = test system: lung cancer cell line NCI-H460; experiment: Minimal effective concentration that elicits polyploidy, NCI-H460; format: cell-based, human
[27] = test system: lung cancer cell line NCI-H596; experiment: Minimal effective concentration that elicits polyploidy, NCI-H596; format: cell-based, human
[28] = test system: lung cancer cell line NCI-H2170; experiment: Minimal effective concentration that elicits polyploidy, NCI-H2170; format: cell-based, human
[29] = test system: glioblastoma cell line T98G; experiment: Minimal effective concentration that elicits polyploidy, T98G; format: cell-based, human
[30] = test system: prostate cancer cell line DU145; experiment: Minimal effective concentration that elicits polyploidy, DU145; format: cell-based, human
[31] = test system: lung cancer cell line Calu-6; experiment: Minimal effective concentration that elicits polyploidy, Calu-6; format: cell-based, human

EC50 [2]	EC50 [3]	EC50 [4]	EC50 [5]	EC50 [6]	EC50 [7]	EC50 [8]	EC50 [9]	SMILES	minimal effective concentration (RPEMYC^H2B-GFP cells [1])	tumor growth (tumor volume) [10]	tumor growth (tumor volume) [11]	minimal effective concentration [12]	minimal effective concentration [13]	minimal effective concentration [14]	minimal effective concentration (SW480)	minimal effective concentration [15]	minimal effective concentration [16]	minimal effective concentration [17]	minimal effective concentration [18]	minimal effective concentration (RPEMYC^H2B-GFP cells [19])	also measured
1 to 1000 nM	1 to 1000 nM	1 to 1000 nM	1 to 1000 nM	1 to 1000 nM	1 to 1000 nM	1 to 1000 nM	1 to 1000 nM	COc1cc(OC)cc(Oc2ncccc2-c2ccnc(OC)c2)c1 [Compound 32, 2-(3,5-dimethoxyphenoxy)-2′-methoxy-3,4′-bipyridine]	1 µM	suppressing the tumor growth	suppressing the tumor growth	0.001 to 1 µM	0.001 to 1 µM	0.001 to 1 µM	0.001 to 1 µM	0.001 to 1 µM	0.001 to 1 µM	0.001 to 1 µM	0.001 to 1 µM	1 µM	
1 to 1000 nM	1000 to 10000 nM	1 to 1000 nM		1 to 1000 nM	1 to 1000 nM	1 to 1000 nM	1 to 1000 nM	COc1cc(OC)cc(Oc2ncccc2-c2ccnc(N)n2)c1 [Compound 19, 4-(2-(3,5-dimethoxyphenoxy)pyridin-3-yl)pyrimidin-2-amine]	1 µM			0.001 to 1 µM	1 to 10 µM	0.001 to 1 µM		0.001 to 1 µM	0.001 to 1 µM	0.001 to 1 µM	0.001 to 1 µM	1 µM	EC50 [20]: 1 to 10 µM; EC50 [21]: 1 to 1000 nM; EC50 [22]: 1 to 1000 nM; EC50 [23]: 1 to 1000 nM; EC50 [24]: 1 to 10 µM; EC50 [25]: 1 to 1000 nM; MECP: Minimal effective concentration that elicits polyploidy [26]: A (A: 1 nM < conc. ≤ 1 μM); MECP: Minimal effective concentration that elicits polyploidy [27]: A (A: 1 nM < conc. ≤ 1 μM); MECP: Minimal effective concentration that elicits polyploidy [28]: A (A: 1 nM < conc. ≤ 1 μM); MECP: Minimal effective concentration that elicits polyploidy [29]: A (A: 1 nM < conc. ≤ 1 μM); MECP: Minimal effective concentration that elicits polyploidy [30]: B (B: 1 μM < conc. ≤ 10 μM); MECP: Minimal effective concentration that elicits polyploidy [31]: A (A: 1 nM < conc. ≤ 1 μM)
1 to 1000 nM	1 to 1000 nM	1 to 1000 nM	1 to 1000 nM	1 to 1000 nM	1 to 1000 nM	1 to 1000 nM	1 to 1000 nM	CNC(=O)c1cc(Oc2ncccc2-c2ccnc(OC)c2)cc(OC(F)(F)F)c1 [Compound 29, 3-((2′-methoxy-[3,4′-bipyridin]-2-yl)oxy)-N-methyl-5-(trifluoromethoxy)benzamide]	1 µM	suppress the growth; also recorded: suppressing the tumor growth	suppress the growth; also recorded: suppressing the tumor growth	0.001 to 1 µM	0.001 to 1 µM	0.001 to 1 µM	0.001 to 1 µM	0.001 to 1 µM	0.001 to 1 µM	0.001 to 1 µM	0.001 to 1 µM	1 µM	
1 to 1000 nM	1 to 1000 nM	1 to 1000 nM	1 to 1000 nM	1 to 1000 nM	1 to 1000 nM	1 to 1000 nM	1 to 1000 nM	COc1cc(Oc2ncccc2-c2ccncc2)cc(-n2cccn2)c1 [Compound 10, 2-(3-methoxy-5-(1H-pyrazol-1-yl)phenoxy)-3,4′-bipyridine]	1 µM	suppress the growth; also recorded: suppressing the tumor growth	suppress the growth; also recorded: suppressing the tumor growth	0.001 to 1 µM	0.001 to 1 µM	0.001 to 1 µM	0.001 to 1 µM	0.001 to 1 µM	0.001 to 1 µM	0.001 to 1 µM	0.001 to 1 µM	1 µM	
